Molecules are shown by their SMILES.

Results on 36 compounds are retold here after a melting point compilation (Tetko et al.; mined from patent text by program, amines drawn as free bases though some values may be those of a salt).

`CCS(=O)(=O)N(C)C1c2cc(F)c(Cl)cc2OC(C)(C)C1OC(C)=O` (stereo unspecified): the melting point (commonly the temperature, or range, at which the solid turns liquid) lay in the range of 143 to 144 °C. `C=C1c2ccc(OC)cc2CC(=NO)c2ccccc21`: the melting point was in the range of 125 to 127 °C. On to `O=CC(=O)c1ccc2c(c1)CCC2`, for which the melting point lay within 100 to 112 °C. `O=C1C=C(c2c(Br)cc(Br)cc2Br)C(=O)N1`: the melting point lay within 140 to 143 °C. `Cn1nnnc1SCC(=O)NC/C=C\COc1cc(CN2CCCCC2)ccn1` had a melting point of 58 to 62 °C. Regarding `CN(C)C=Cc1[nH]c(=O)ccc1C(=O)c1ccco1`, the melting point lay within 238 to 240 °C. `O=C(Nc1cccc2c1C(=O)c1c-2n[nH]c1-c1ccc(N2CCNCC2)cc1)NN1CCC[C@@H]1COCc1ccccc1` came in with a melting point of 207 °C.

Compound `C=Cc1c(CS)cnc(C)c1O` yielded a melting point of 130 to 140 °C. With `Nc1ccc(Sc2cc(I)nc(I)c2)cc1`, the melting point is 175 to 176 °C. The same measure for `COC1=CC(=O)[C@H](C(=O)O[C@@H]2C[C@H](C)CC[C@H]2C(C)C)[C@@H](C)C1`: 78 to 80 °C; for `CCOC(=O)CC1(CC)OCCc2c1[nH]c1ccccc21` (stereo unspecified): less than 80 °C; for `O=[N+]([O-])c1cccc(C2=NCc3n[nH]nc3-c3ccccc32)c1`: 223 to 225 °C. With `COc1cc(NS(=O)(=O)c2ccc(Cl)cc2)c(C(=O)Cl)cc1OC`, the melting point fell in the range of 175 to 177 °C. With `CC1(C)NC(=O)C2CN(CCCC(c3ccc(F)cc3)c3ccc(F)cc3)CCN21` (stereo unspecified) the figure was 148 °C; with `Nc1sc2c(c1C(=O)c1ccc3c(c1)OCO3)CCN(C(=O)c1ccccc1)C2`, 211 to 212 °C. With `CC(=O)C1CCC2C3CCC4CC(O)C(N5CCOC(Cc6ccccc6)C5)CC4(C)C3C(=O)CC12C` (stereo unspecified) the figure was 160 to 162 °C. In turn, `Cn1nc2c(oc3cc(Cl)ccc32)c1N` showed a melting point of 210 to 211 °C. As for `OCc1c(Cl)ccc(C2OCCO2)c1Cl`, the melting point is 82 to 85 °C. The compound `Nc1nc(NC2CCCCC2)nc(NC2CCCCC2)n1` displayed a melting point of 153 °C. `CN1CCC(c2cc3cccc(O)c3o2)CC1` showed a melting point of 144 to 146 °C. `NCC(=O)Nc1c(Br)cc(Br)cc1Br`: the melting point was 185 to 186 °C. For the compound `CCCOc1ccccc1-c1nc2cc3ncn(CC(C)C4CCCCC4)c3cc2c(=O)[nH]1` (stereo unspecified), the melting point fell in the range of 178 to 180 °C. `CCc1cc(C(C)=O)ccc1N=C1SCC2(CCCC2)N1C1CCCC1`: the melting point is 114 to 115 °C. As for `O=C1Cc2cc(Cl)cc(Oc3ccccc3Cl)c2N1`, the melting point was 196 to 198 °C. For the compound `COC(=O)CCCC=Cc1nn(-c2ccc(F)cc2)c2c1CCC2`, the melting point was in the range of 67 to 68 °C. On to `O=[N+]([O-])c1oc2ccc(CBr)cc2c1-c1ccccc1`, for which the melting point was in the range of 171 to 180 °C. With `CC(C)(C)C(=O)Nc1nn(C(=O)C(C)(C)C)c(N)c1C#N` the figure was 181 to 184 °C; with `CC(C)(C)OC(=O)N1CCN(c2ccc(Oc3cc(Cl)ccc3N)cc2)CC1`, 95 to 96 °C; with `CCCCNc1cccc(-c2ccnc3c(C(=O)c4cccs4)cnn23)c1`, 87 to 91 °C.

`CCC(=O)Nc1c(C)c(C)c2c(c1C)CC(C)(C)O2` had a melting point of 146 °C. `COC(=O)c1ccc(OCC2CCCN(C)C2)cc1` (stereo unspecified) displayed a melting point of 55 to 56 °C. As for `COc1cc(OC)cc(C(=O)c2ccc(OC(F)F)c(OC(F)F)c2)c1`, the melting point fell in the range of 60 to 62 °C.

`CCN(c1nc2c(cc1CN(Cc1cc(C(F)(F)F)cc(C(F)(F)F)c1)c1nnn(C)n1)c(C)nn2C)C1CCCC1` gave a melting point of 43 to 44 °C. Consider `CN1CCN(Cc2c(-c3cc(C(C)(C)C)c(O)c(C(C)(C)C)c3)nc3n2CCS3)CC1`, for which the melting point is 211 to 212 °C. The compound `COCCN(CCOC)C(=O)c1ccc(C(=O)N2CCN(c3ncccc3NC(C)C)CC2)cc1` came in with a melting point of 82 to 83 °C. Regarding `CCCCn1nc(C(F)(F)CC)nc1Cc1ccc(-c2ccccc2-c2nnn[nH]2)nc1`, the melting point lay within 98 to 100 °C.
